Experiments:
[1] = test system: T cells; experiment: T cell adhesion to fibronectin-coated wells after DS pretreatment and activation; format: cell-based, human; conditions: T cells pretreated with DS at 1 ng/ml, 30 minutes; chemoattractants MIP-1β, SDF-1α or RANTES 20 ng/ml each
Procedure: T cells were pretreated with DS9392 (A), DS9267 or DS8892 (B), at 1 ng/ml, 30 minutes incubation for each, and were then seeded on fibronectin (FN)-coated microtiter wells and activated with either PMA (50 ng/ml), anti-CD3 mAb (15 μg/ml), IL-2 (10 IU/ml) or one of the chemoattractants, MIP-Iβ, SDF-Iα or RANTES (20 ng/ml each). T cell adhesion was then measured.
Human T cells were purified from the peripheral blood of healthy donors. Briefly, human peripheral blood was isolated on Ficoll gradients, washed, resuspended in PBS containing 3% heat-inactivated FCS (Bet Haemek, Israel), and incubated (45 min, 37° C., 7% CO2-humidified atmosphere) on nylon-wool columns (NovaMed; Jerusalem, Israel). Non-adherent cells were eluted and washed, and platelets were removed by centrifugation (700 rpm, 15 min, 18° C.). Residual monocytes were removed by incubation of the cells on tissue culture plates (2 h, 37° C.), after which non-adherent cells were collected. The CD3^+ content of these PBLs was >95%.
Without wishing to be limited by a single hypothesis, binding of the DS to moesin would appear to promote inhibition of T-cell adhesion and migration.

[2] = test system: Jurkat cells; experiment: 51Cr-labeled Jurkat cell adhesion to fibronectin; format: cell-based; conditions: DS-9267 100 ng/ml; fibronectin 1 μg/ml; adherent cells determined after 30 minutes
Procedure: The amount of adherent cells was determined 30 minutes later. Non-adherent cells were washed away and the remaining bound cells were lysed. The radioactivity of lysates, representing the amount of fibronectin-adherent cells, was determined using a γ-counter. The results represent the percentage of cells that were bound to the wells from total cells that were added to each well.
Jurkat cells, a CD4+ T-lymphoma cell line, were maintained in medium consisted of RPMI 1640 (Bet Haemek, Israel), supplemented with 10% cosmic calf serum (HyClone Laboratories), 2 mM L-glutamin and 1% Pen-Strep (Bet Haemek, Israel), at 37° C., in an atmosphere of 5% CO2.
It was shown that certain heparin- and heparan sulfate-derived DS induced, in a dose-dependent manner, the adhesion of human T cells to both ECM and immobilized fibronectin (6). This adhesion appears to involve β1 integrin recognition and activation and is associated with specific intracellular activation pathways (6). Since moesin is expressed on T cells, antibody to moesin was examined for the potential to block the ability of DS to induce adhesion in T cells.

[3] = biological target: T1, recombinant moesin (Homo sapiens, UniProt P26038); experiment: Binding of heparin-disaccharide to immobilized recombinant moesin (plate assay, anti-heparan sulfate mAb detection); conditions: plates coated with recombinant moesin or purified BSA, detection with anti-heparan sulfate mAb and anti-rat IgM Ab, duplicate
T1 construct: The plasmid pGEX-KG-human moesin residues 1-577 (pGhuMo); GST (cleaved yes); made in house; host or cells: Escherichia coli
T1 sequence (P26038 whole entry, the tested form may be a part): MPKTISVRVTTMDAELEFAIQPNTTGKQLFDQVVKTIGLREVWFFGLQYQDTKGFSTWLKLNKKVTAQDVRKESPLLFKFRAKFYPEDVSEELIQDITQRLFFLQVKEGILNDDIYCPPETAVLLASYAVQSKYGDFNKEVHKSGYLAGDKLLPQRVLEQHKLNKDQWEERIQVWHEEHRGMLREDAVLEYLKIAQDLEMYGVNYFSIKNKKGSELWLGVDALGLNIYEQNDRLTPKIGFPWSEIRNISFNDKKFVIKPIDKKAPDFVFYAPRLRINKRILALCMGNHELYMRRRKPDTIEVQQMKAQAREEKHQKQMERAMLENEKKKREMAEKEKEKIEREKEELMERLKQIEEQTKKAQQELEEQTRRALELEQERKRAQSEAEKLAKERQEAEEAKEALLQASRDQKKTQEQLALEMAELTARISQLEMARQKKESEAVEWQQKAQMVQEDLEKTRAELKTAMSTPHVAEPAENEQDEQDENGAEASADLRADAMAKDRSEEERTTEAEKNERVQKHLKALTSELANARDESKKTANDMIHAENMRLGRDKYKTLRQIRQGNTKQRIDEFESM
Procedure: Following coating, DS-9392 was added to the plates, incubated and washed. Detection was performed using an anti-heparan sulfate mAb followed by an anti-rat IgM Ab. Each experiment was performed in duplicate. The results represent mean and SD.
The plasmid pGEX-KG-human moesin residues 1-577 (pGhuMo) (provided by Prof. Furthhmayer [Stanford, Calif.]) contains human moesin as a fusion protein to glutathione S-transferase (GST). Escherichia coli (E. coli) bacteria were transformed with pGhuMo and grown in L-broth containing penicillin (100 μg/ml). These bacteria were induced to express the fusion protein with 100 μM isopropyl β-D-thiogalactopyranoside (IPTG). The recombinant protein was bound to a glutathione-agarose column (Sigma) and cleaved with thrombin (Pharmacia; Piscataway, N.J.). The purified protein was dialyzed against PBS at 4° C. and stored at −70^cC. The purity and integrity of the protein were determined by size separation using SDS-polyaclrylamide gel electrophoresis (PAGE), Coomassie blue staining, and Western blotting with the anti-human moesin mAb clone 38/87. The protein was quantitated by densitometric analysis of recombinant moesin and known amounts of BSA, which were used to construct a standard curve.
Since moesin binds to heparin and heparan sulfate (1), disaccharide (DS) derived from heparin was also tested to see if it could also bind to moesin.

[4] = test system: HT-29 cells; experiment: TNFα-induced IL-8 / IL-1β secretion from HT-29 cells (ELISA); format: cell-based; conditions: DS-9267 pre-incubated 30 min with increasing concentrations of recombinant human moesin; TNFα-stimulated HT-29 cells, 24 hours
Procedure: Following culture, the cells were pre-incubated for 30 minutes with either anti-moesin or control antibody (anti HSP-60). Then DS-9267 was added for 30 minutes, after which TNFα (200 ng/ml) was added and the cells were incubated for additional 20 hours. Subsequently, the supernatants were collected and the level of IL-8 was determined.
Following culture, the cells were supplemented with fresh medium and the DS-9267 which was pre-incubated for 30 minutes with recombinant moesin at the indicated concentrations was added to all cells except for the controls. The culture was continued for 24 hours. Subsequently, the supernatants were collected and assayed for the concentrations of IL-8 (A) and IL-1β (B).
Epithelial cells were grown as confluent monolayer's in 24-well tissue culture plates. […] Following culture, the supernatants were harvested and analyzed for cytokine secretion. […]
IL-8 concentration was measured by ELISA. […] IL-1β concentration was measured by an ELISA kit (Genzyme, Cambridge, Mass.) according to the manufacturer's instructions.
It has been shown that disaccharide molecules derived from heparin and from heparan sulfate can inhibit the secretion of IL-8 and IL-1β by HT-29 cells. […] Subsequently, the cells were treated with TNFα and the secretion of IL-8 was assessed. […]

| Molecule | chemokine-mediated T cell adhesion to fibronectin [1] | Jurkat cell adhesion to fibronectin [2] | binding to immobilized recombinant moesin versus BSA [3] | binding to immobilized recombinant moesin versus BSA ([3]; listed as Heparin-DS) | effect of recombinant moesin on the inhibitory effect of DS on IL-8 and IL-1β secretion [4] |
| --- | --- | --- | --- | --- | --- |
| O=C(O)C1=CC(O)C(OS(=O)(=O)O)C(OC2C(COS(=O)(=O)O)OC(O)C(NS(=O)(=O)O)C2O)O1 (stereo not drawn) [DS-9267, 2-O-sulfate-4-deoxy-4-en-iduronic acid-(alpha.-1,4)-2-deoxy-2-N-sulfate-6-O-sulfateglucosamine] | specifically inhibits chemokine-mediated T cell adhesion | induced | – | – | – |
| O=C(O)C1=CC(O)C(OS(=O)(=O)O)C(OC2C(CO)OC(O)C(NS(=O)(=O)O)C2O)O1 (stereo not drawn) [DS-9392, 2-O-Sulfate-4-deoxy-4-en-iduronic acid-(alpha-1,4)-2-deoxy-2-N-sulfateglucosamine] | specifically inhibits chemokine-mediated T cell adhesion | – | The difference was significant | binds to moesin, and not to BSA | – |
| recombinant moesin: Recombinant human moesin residues 1-577, expressed in E. coli as GST fusion and cleaved with thrombin (protein, UniProt P26038 2-577, looked up, GST tag removed by thrombin, Recombinant human moesin residues 1-577, expressed in E. coli as GST fusion and cleaved with thrombin) Moesin: PKTISVRVTTMDAELEFAIQPNTTGKQLFDQVVKTIGLREVWFFGLQYQDTKGFSTWLKLNKKVTAQDVRKESPLLFKFRAKFYPEDVSEELIQDITQRLFFLQVKEGILNDDIYCPPETAVLLASYAVQSKYGDFNKEVHKSGYLAGDKLLPQRVLEQHKLNKDQWEERIQVWHEEHRGMLREDAVLEYLKIAQDLEMYGVNYFSIKNKKGSELWLGVDALGLNIYEQNDRLTPKIGFPWSEIRNISFNDKKFVIKPIDKKAPDFVFYAPRLRINKRILALCMGNHELYMRRRKPDTIEVQQMKAQAREEKHQKQMERAMLENEKKKREMAEKEKEKIEREKEELMERLKQIEEQTKKAQQELEEQTRRALELEQERKRAQSEAEKLAKERQEAEEAKEALLQASRDQKKTQEQLALEMAELTARISQLEMARQKKESEAVEWQQKAQMVQEDLEKTRAELKTAMSTPHVAEPAENEQDEQDENGAEASADLRADAMAKDRSEEERTTEAEKNERVQKHLKALTSELANARDESKKTANDMIHAENMRLGRDKYKTLRQIRQGNTKQRIDEFESM | – | – | – | – | antagonized the inhibitory effect of the DS in a dose-dependent manner |

From patent US20080274998A1, “Disaccharide Molecules and Derivatives Thereof and Methods of Using Same” (YEDA RESEARCH AND DEVELOPMENT CO. LTD., priority 2004, published 2008)
